According to the METLIN SMRT retention time set (Domingo-Almenara et al. 2019):

Experiment: gradient 5% acetonitrile 3 min, to 50% in 2 min, to 85% in 15 min, held 3 min, 100 µL/min
Settings: column: Zorbax Extend-C18 2.1 x 50 mm; eluents: water / acetonitrile, 0.1% formic acid
How it was run: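 Pure standards were analyzed in mixtures of ~100 molecules using HPLC coupled to a quadrupole time-of-flight mass spectrometer, in both positive and negative ionization mode. Separation used a Zorbax Extend-C18 column (2.1 × 50 mm, 1.8 μm) at 100 μL/min, with water and acetonitrile each containing 0.1% formic acid. Dead and dwell volumes were 40 μL and 900 μL, and data were collected over 3 months. Retention time was read from computationally picked adduct peaks, each inspected manually.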

| RP-LC retention time | Compound |
| --- | --- |
| 607 s | CCc1nn(CC(=O)N2CCN(c3ccccn3)CC2)c(=O)c2cc3ccccc3n12 |
| 932 s | COc1ccc(CNC(=O)C2(C)CCCN(S(=O)(=O)c3ccccc3Cl)C2)cc1 (centres undefined) |
| 640 s | CCOc1ccc(C(=O)NCC(=O)Nc2nc3ccccc3[nH]2)cc1OCC |
| 735 s | CC(C)NC(=O)CSc1nnc2c3cc(-c4ccc(F)cc4)nn3ccn12 |
| 679 s | CC(=O)NCC(=O)NCc1nn(Cc2ccccc2)c2ccccc12 |
| 823 s | CC1(C(=O)NC2CCCC2)Cn2cnc(C(=O)NCCCc3ccccc3)c2C(=O)N1C1CC1 (centres undefined) |
| 728 s | O=C(Cn1c(=O)nc(N2CCCCC2)c2ccccc21)Nc1ccc2c(c1)OCCO2 |
| 1160 s | Cc1ccc2c(c1)N(C(=O)Cn1cccc1-c1nc(-c3ccc4c(c3)OCO4)no1)CCO2 |
| 823 s | Cc1ccc(C)c(Sc2cc(N3CCC(C(=O)NCCCOC(C)C)CC3)ncn2)c1 |
| 784 s | O=C(C1=NN(Cc2ccccc2)c2ccccc2S1(=O)=O)N1CCCC1 |
| 841 s | COc1ccc(CNC(=O)Cc2nnc(-c3ccc4ncccc4c3)o2)c(OC)c1 |
| 808 s | Cc1ccc(-n2c(N3CCC(C(=O)NCC4CC4)CC3)nc3ccsc3c2=O)cc1 |
| 825 s | CCc1ccc(CNC(=O)C2CCN(Cc3cn(CC)c4ccc(Cl)cc34)CC2)cc1 |
| 824 s | CCOc1ccc(NC(=O)Cn2c(=O)n(-c3ccc(C)cc3)c(=O)c3c2cc(C)n3C)cc1 |
| 555 s | c1ccc(CNc2nc(-c3ccncc3)nc3c2CCC3)nc1 |
| 823 s | Cc1ccc(NC(=O)NC2CCN(c3ccccc3)C2=O)c(C)c1 (centres undefined) |
| 656 s | COc1ccc(CCC(=O)NC(C)C(=O)Nc2nc3ccccc3[nH]2)cc1 (centres undefined) |
| 633 s | CCn1cnc(S(=O)(=O)N2CCCC(C(=O)Nc3ccc(-c4nc5ccccc5[nH]4)cc3)C2)c1 (centres undefined) |
| 722 s | Cc1cccc(Cn2c(=O)n(CCNC(=O)c3cnccn3)c3ncccc32)c1 |
| 1000 s | COc1ccccc1-c1nc(Cc2noc(Cc3ccc(F)cc3)n2)c(C)o1 |
| 931 s | Cc1ccccc1-n1ccn(Cc2nc(-c3cccc(Br)c3)no2)c(=O)c1=O |
| 631 s | CNC(=O)c1nc(C(C)(C)NC(=O)c2cnccn2)nc2c1OCO2 |
| 976 s | COc1ccc(N2C(=O)C3N=NN(Cc4nc(-c5ccccc5C)no4)C3C2=O)cc1 (centres undefined) |
| 708 s | Cc1cccc(CNC(=O)c2cn3cc(C)ccc3n2)c1 |
| 704 s | Fc1ccccc1C(c1nnc(-c2ccccc2)o1)N1CCN(c2ccccn2)CC1 (centres undefined) |
| 728 s | CCn1cc(C(=O)N[C@@H](Cc2ccccc2)C(=O)O)c(=O)c2cc3c(cc21)OCO3 |
| 855 s | CC(=O)c1ccc(N2CCN(C(=O)CN3C(=O)C(C)(C)c4cc(C)ccc43)CC2)cc1 |

| RP-LC retention time | Compound |
| --- | --- |
| 790 s | CC(NC(=O)Cc1cccn1-c1ccc(Cl)cc1)c1ccccn1 (centres undefined) |
| 753 s | Cc1noc(C)c1CNC(=O)c1ccc2ncccc2c1 |
| 894 s | O=c1c(=O)n(-c2ccccc2)ccn1Cc1nc(-c2ccc(F)c(Cl)c2)no1 |
| 632 s | COc1ccc(C)c2sc(N(CCN(C)C)C(=O)c3cnn(-c4ccccc4)c3C)nc12 |
| 781 s | Cc1nnc(NC(=O)c2csc(Nc3ccc(OC(F)F)cc3)n2)s1 |
| 854 s | Cc1cc(C)cc(N2CCC(NC(=O)c3ccc(C#N)cc3)C2=O)c1 (centres undefined) |
| 920 s | COc1ccc(Oc2cc3c(cc2NC(=O)Nc2cccc(OC)c2)n(C)c(=O)n3C)cc1 |
| 725 s | COc1ccc(CCNC(=O)CN2C(=O)c3cccc4cccc(c34)C2=O)cc1OC |
| 665 s | Cc1ccc(-c2cn3ccccc3n2)cc1NS(=O)(=O)c1ccc(F)cc1 |
| 684 s | CCOc1ccccc1N1CCN(c2cc(C(=O)O)c3cc(NC(=O)C(C)C)ccc3n2)CC1 |
| 734 s | N#CC1(c2ccc(NC(=O)c3cccnc3NCc3ccncc3)cc2)CCCC1 |
| 932 s | CCc1nn2c(CNS(=O)(=O)c3ccc(F)cc3)c(-c3ccccc3)nc2s1 |
| 985 s | Cc1nc2c(sc3nc(-c4ccccc4)ccc32)c(=O)n1CC(=O)Nc1ccc2c(c1)OCO2 |
| 1310 s | CCOc1ccc(-c2csc(Cc3nc(-c4cccc(C)c4)no3)n2)cc1 |
| 561 s | CCOc1ccc2ncc(C(=O)c3ccc(C)cc3)c(N3CCN(C)CC3)c2c1 |
| 931 s | Cc1nnc(-c2c(S(=O)(=O)N3CCC(Cc4ccccc4)CC3)c(C)n(C)c2C)o1 |
| 790 s | Cc1cccc(-c2nnc(CC(=O)NCC(C)C)o2)c1 |
| 692 s | CCOc1ccc(-n2c(SCC(=O)Nc3ncn[nH]3)nc3ccsc3c2=O)cc1 |
| 736 s | COc1ccc(NC(=O)Cn2nc3cc(C)nc(-c4ccccc4)n3c2=O)cc1OC |
| 615 s | CN(C)c1ccc(CNC(=O)Cn2cc(-c3nnco3)c3ccccc32)cc1 |
| 948 s | CC(C)(C)NC(=O)C(=O)c1c(-c2ccccc2)cc2ccccn12 |
| 711 s | COCCNC(=O)C1c2ccccc2CC(=O)N1Cc1ccccc1 (centres undefined) |
| 663 s | CC(=O)Nc1ccc(-n2cnc(C(=O)NCc3ccccc3)c2)nc1 |
| 787 s | Cc1ccc(CCNC(=O)Cn2c(C)nc3onc(C)c3c2=O)cc1 |
| 771 s | CCn1c(C2CCN(S(=O)(=O)c3cccc(C)c3)C2)nc2cccnc21 (centres undefined) |
| 1170 s | CCOC(=O)c1cc(C2CC2)nc2c1c(=O)n(Cc1ccc(OC)cc1)c(=O)n2C |

More lines, now with the values behind:

| Compound | RP-LC retention time |
| --- | --- |
| CC(C(O)c1ccc(O)cc1)N1CCC(Cc2ccccc2)CC1 (centres undefined) | 718 s |
| Cc1ccc(-n2cc(C(=O)N3CCSCC3)nn2)cc1C | 852 s |
| Cc1ccc(-c2nc(CN3CCN(C(=O)NC4CCCC4)CC3)c(C)o2)cc1 | 677 s |
| CCOc1ccc(NC(=O)c2cn3c4c(ccc(Cl)c4c2=O)OCC3)cc1 | 657 s |
| Cc1noc(C2(NC(=O)c3ccc[nH]c3=O)CCCCC2)n1 | 621 s |
| Cc1ccccc1N1C(=O)CC(N2CCC(C(N)=O)CC2)C1=O (centres undefined) | 580 s |
| O=C(NCCN1CCN(c2ccc(Cl)cc2)CC1)C1CC1 | 576 s |
| CCCC(=O)Nc1ccc(OCc2cc(C(=O)NC(C)CC)no2)cc1 (centres undefined) | 819 s |
| CC(C)(C)c1noc(-c2ccc(-n3cnc(C(=O)N4CCCCCC4)c3)nc2)n1 | 1030 s |
| O=C(c1ccncc1)N1CCCCC1c1nc(-c2ccc(F)cc2)no1 (centres undefined) | 673 s |
| CCS(=O)(=O)N1CC(F)(F)C[C@H]1c1nc(-c2cccnc2)no1 | 743 s |
| Cc1cc(Cl)ccc1NS(=O)(=O)c1ccc(-c2c(C)noc2C)cc1 | 1030 s |
| CC(C(=O)N1CCCN(c2cc(=O)n(C(C)C)c(=O)n2C(C)C)CC1)N1C(=O)COc2ccccc21 (centres undefined) | 846 s |
| CNC(=O)N1CCC(OC2CCN(Cc3ccccc3)CC2)CC1 | 555 s |
| CCOc1cc(C)c(S(=O)(=O)N2CCC(C(N)=O)CC2)cc1C | 715 s |
| O=C(NCc1csc(C2CCCN(C(=O)C3CCCCC3)C2)n1)C1CC1 (centres undefined) | 748 s |
| COc1ccccc1C(=O)N1CCCC(c2nnc(C)s2)C1 (centres undefined) | 646 s |
| O=C(Cc1cn2cc(Br)ccc2n1)Nc1ccc2c(c1)OCCO2 | 608 s |

| Compound | RP-LC retention time |
| --- | --- |
| CCOC(=O)N1CCC(Nc2c(C(=O)OC)c(=O)[nH]c3c(Cl)cccc23)CC1 | 731 s |
| O=C(CSc1ccc(N2CCCC2)nn1)Nc1ccc(Cl)cc1 | 647 s |
| Cc1ccc(S(=O)(=O)CCc2noc(-c3ccc4c(c3)OCO4)n2)cc1 | 931 s |
| COc1cc(N2CC(CNS(C)(=O)=O)OC2=O)cc(OC)c1OC (centres undefined) | 593 s |
| CC(C)N1CCN(C(=O)c2cn(-c3ccc(-c4nc(C(C)(C)C)no4)cn3)cn2)CC1 | 671 s |
| CCOc1ccc2nc(C(=O)NC3CCCCC3)cn2n1 | 897 s |
| COc1ccc(-c2nc3ccc(C)cn3c2Nc2ccc3c(c2)OCCO3)cc1 | 692 s |
| CS(=O)(=O)N1CCC(OC2CCN(C(=O)Nc3cccc(Cl)c3F)CC2)CC1 | 787 s |
| CC(C)n1cnc(S(=O)(=O)N2CCC(C(=O)NC3CCCCCC3)CC2)c1 | 736 s |
| COc1ccc(N2CC(c3nc(-c4ccccc4Cl)no3)CC2=O)cc1OC (centres undefined) | 878 s |
| O=C(O)c1cnc(N2CCOCC2)nc1-c1cccc(Cl)c1 | 770 s |
| COc1cc(Cl)ccc1C(=O)N1CCN(c2cc(-c3ccc(Cl)cc3)[nH]n2)CC1 | 923 s |
| CCC(C)NC(=O)c1cc(NC(C)=O)cc2nc(C)ccc12 (centres undefined) | 575 s |
| CC(C)c1cc(CNc2nc(Nc3cc(C4CC4)[nH]n3)cc(N3CCN(C)CC3)n2)on1 | 647 s |
| CC(=O)N1CCN(c2nc(C)cc(N3CCCC3)n2)CC1 | 580 s |
| CCCNC(=O)NCCC1CCN(S(=O)(=O)c2ccc(F)cc2)CC1 | 771 s |
| Cc1ccc(-c2coc(-c3ccc(NC(=O)C(C)(C)C)cc3)n2)cc1 | 1220 s |
| O=C(NCc1ccc2c(c1)OCO2)c1ccc2c(c1)N(CC(=O)N1CCCC1)C(=O)CO2 | 674 s |
